Measurements reported in patent publication US20200405752A1, “ANTITUMOR AGENT, ANTITUMOR EFFECT ENHANCER, AND ANTITUMOR KIT” (FUJIFILM Corporation, priority 2018, published 2020).
Like-named read-outs stand apart in the source and are kept apart here.

Experiments:
[1] = tested on: human pancreatic cancer-derived cell line SUIT-2; assay: Cell viability (CellTiter Glo, intracellular ATP) of SUIT-2 in combination with cisplatin or oxaliplatin; type: cell-based; details: for viability at 0.0015 µM / viability at 0.0046 µM / viability at 0.0137 µM / viability at 0.0412 µM / viability at 0.1235 µM / viability at 0.3704 µM / viability at 1.1111 µM / viability at 3.3333 µM / viability at 10 µM / viability at 0.001 µM / viability at 0.003 µM / viability at 0.01 µM / viability at 0.03 µM / viability at 0.1 µM / viability at 0.3 µM / viability at 1 µM / viability at 3 µM / IC50: Homo sapiens; for viability at 0.0015 µM / viability at 0.0046 µM / viability at 0.0137 µM / viability at 0.0412 µM / viability at 0.1235 µM / viability at 0.3704 µM / viability at 1.1111 µM / viability at 3.3333 µM / viability at 10 µM / viability at 0.001 µM / viability at 0.003 µM / viability at 0.01 µM / viability at 0.03 µM / viability at 0.1 µM / viability at 0.3 µM / viability at 1 µM / viability at 3 µM: SUIT-2, 72 h, 3 days; for viability at 0.0015 µM / viability at 0.0046 µM / viability at 0.0137 µM / viability at 0.0412 µM / viability at 0.1235 µM / viability at 0.3704 µM / viability at 1.1111 µM / viability at 3.3333 µM / viability at 10 µM / viability at 0.001 µM / viability at 0.003 µM / viability at 0.01 µM / viability at 0.03 µM / viability at 0.1 µM / viability at 0.3 µM / viability at 1 µM / viability at 3 µM / combination index (CI): SUIT-2; for viability at 0.0015 µM: test substance 1.5 nM; for viability at 0.0046 µM: test substance 4.6 nM; for viability at 0.0137 µM: test substance 13.7 nM; for viability at 0.0412 µM: test substance 41.2 nM; for viability at 0.1235 µM: test substance 123.5 nM; for viability at 0.3704 µM: test substance 370.4 nM; for viability at 1.1111 µM: test substance 1111.1 nM; for viability at 3.3333 µM: test substance 3333.3 nM; for viability at 0.001 µM: test substance 1 nM; for viability at 0.003 µM: test substance 3 nM; for viability at 0.01 µM: test substance 10 nM; for viability at 0.03 µM: test substance 30 nM; for viability at 0.1 µM: test substance 100 nM; for viability at 0.3 µM: test substance 300 nM; for viability at 1 µM: test substance 1000 nM; for viability at 3 µM: test substance 3000 nM; for IC50: SUIT-2, SUIT-2, read-out: IC50 value (concentration that inhibits cell viability by 50%); for combination index (CI): CI<1 synergistic
Text: Evaluation of antitumor activity against human pancreatic cancer-derived cell line SUIT-2 by combination use of cisplatin and oxaliplatin
Gemcitabine (hereinafter, also referred to as Gem), cisplatin, oxaliplatin, and methanesulfonate of Compound A were used as test substances.
Gemcitabine hydrochloride (manufactured by Plantex Co., Ltd.) dissolved in dimethyl sulfoxide (DMSO) was used as gemcitabine. Cisplatin (Cat. #039-20091, manufactured by Wako Pure Chemical Industries, Ltd.) and oxaliplatin (Cat. #00372, manufactured by Tokyo Chemical Industry Co., Ltd.), each of which dissolved in serum-free RPMI-1640 medium (Cat. #11875-119, manufactured by Thermo Fisher Scientific Inc.), were used as cisplatin and oxaliplatin, respectively.
Human pancreatic cancer cell line SUIT-2 cells were subcultured in RPMI-1640 medium supplemented with 10% serum (Cat. #10437-028, manufactured by Thermo Fisher Scientific Inc.). During this test, all cell cultures were carried out in a CO2 incubator (set to 37° C. and 5% CO2, saturated with water vapor). The culture was diluted with a 10% serum-supplemented medium to a cell density of 15000 cells/well/100 μL and the cells were seeded on a 96-well plate. On the next day, the culture supernatant of each well was discarded, followed by washing twice with 150 μL of serum-free medium, and 100 μL of serum-free medium was added thereto, followed by culturing for 3 days.
The methanesulfonate of Compound A and gemcitabine were dissolved in DMSO to prepare 100 mmol/L DMSO solutions thereof. The thus-prepared DMSO solutions were diluted sequentially with DMSO to prepare DMSO solutions having a final treatment concentration of 1000-fold dilution. Cisplatin and oxaliplatin were dissolved in serum-free medium to prepare a cisplatin solution 30 μmol/L and an oxaliplatin solution 60 μmol/L, respectively. The DMSO diluted solutions of Compound A and gemcitabine were diluted with the cisplatin solution (30 μmol/L) or the oxaliplatin solution (60 μmol/L) to prepare treatment liquids having a final treatment concentration of 6-fold dilution. Compound A and gemcitabine were used with a maximum concentration of 10 μmol/L at a common ratio of 1/3 and 9 concentrations in combination with cisplatin or oxaliplatin.
20 μL of Compound A or gemcitabine diluted with the cisplatin solution (30 μmol/L) or the oxaliplatin solution (60 μmol/L) was added to each well. In addition, a group in which only a solvent containing no drug was added to wells in which cells were seeded (positive control), and a group in which only a solvent containing no drug was added to wells containing only a medium (negative control) were provided. All groups were set to n=3 well.
The cells were cultured for 3 days after the addition of the drug, and the cell viability was evaluated using a CellTiter Glo (registered trademark) Reagent (Cat. #G7570, manufactured by Promega Corporation) with the intracellular ATP level as an index. The concentration that inhibits cell viability by 50% (IC50 value) was calculated using XLFit software Ver.3 (registered trademark, manufactured by CTC Laboratory Systems Corporation).
The cell viability of each well was determined with the luminescence signal level of the negative control being 0% cell viability and the luminescence signal level of the positive control being 100% cell viability. The average value and standard deviation of the cell viability of each treatment group were calculated to prepare Table 1 and Table 2.
On the combinational effect of the embodiment of the invention, the results of evaluation using a combination index (CI) which is a quantitative index of the combinational effect are shown. The CI can be calculated by the following equation according to Cancer Research, 2010, Vol. 70, pp. 440 to 446.
That is, in a case where the drugs to be used in combination are drug 1 and drug 2, the CI at a certain drug concentration is […]

[2] = orally administered to mice; cited from earlier work
[3] = tested on: pancreatic cancer patient; details: cited from earlier work
[4] = with cisplatin 5 μmol/L, test substance 10000.0 nM
[5] = with oxaliplatin 10 μmol/L, test substance 10000 nM
[6] = used in combination with cisplatin (5 μmol/L, Table 1)
[7] = used in combination with oxaliplatin (10 μmol/L, Table 2)

SMILES	viability at 0.0015 µM ([1]; with cisplatin 5 μmol/L) [%]	viability at 0.0046 µM ([1]; with cisplatin 5 μmol/L) [%]	viability at 0.0137 µM ([1]; with cisplatin 5 μmol/L) [%]	viability at 0.0412 µM ([1]; with cisplatin 5 μmol/L) [%]	viability at 0.1235 µM ([1]; with cisplatin 5 μmol/L) [%]	viability at 0.3704 µM ([1]; with cisplatin 5 μmol/L) [%]	viability at 1.1111 µM ([1]; with cisplatin 5 μmol/L) [%]	viability at 3.3333 µM ([1]; with cisplatin 5 μmol/L) [%]	viability at 10 µM [1, 4] [%]	viability at 0.001 µM ([1]; with oxaliplatin 10 μmol/L) [%]	viability at 0.003 µM ([1]; with oxaliplatin 10 μmol/L) [%]	viability at 0.01 µM ([1]; with oxaliplatin 10 μmol/L) [%]	viability at 0.03 µM ([1]; with oxaliplatin 10 μmol/L) [%]	viability at 0.1 µM ([1]; with oxaliplatin 10 μmol/L) [%]	viability at 0.3 µM ([1]; with oxaliplatin 10 μmol/L) [%]	viability at 1 µM ([1]; with oxaliplatin 10 μmol/L) [%]	viability at 3 µM ([1]; with oxaliplatin 10 μmol/L) [%]	viability at 10 µM [1, 5] [%]	IC50 [1, 6] [nM]	IC50 [1, 7] [nM]	further results
Nc1ccn([C@@H]2S[C@H](CO)[C@@H](O)[C@@H]2F)c(=O)n1 [Compound A, 1-(2-deoxy-2-fluoro-4-thio-β-D-arabinofuranosyl)cytosine]	96	80	47	33	28	28	26	27	30	94	93	87	60	46	41	38	39	38	12.9	73.4	combination index (CI) ([1]; combination with cisplatin): 0.36; combination index (CI) ([1]; combination with oxaliplatin): 0.44; antitumor activity [2]: potent antitumor activity
Nc1ccn([C@@H]2O[C@H](CO)[C@@H](O)C2(F)F)c(=O)n1 [Gemcitabine]	98	97	99	94	82	73	54	32	22	98	102	97	97	101	96	89	80	61	1140	≥ 10000	combination index (CI) ([1]; combination with cisplatin): 0.96; combination index (CI) ([1]; combination with oxaliplatin): 0.97; median survival time ([3]; combination with cisplatin): 7.5 months; response rate ([3]; combination with cisplatin): 11.5%; median survival time ([3]; combination with oxaliplatin): 5.7 months; response rate ([3]; combination with oxaliplatin): 9%
